Changes are numbered by the printed parent chain.
What was measured:
[1] = molecular target: T1, ACVRL1 (Homo sapiens, UniProt P37023); experiment: ThermoFisher (Lantha) kinase assay, inhibition of ACVRL1; format: biochemical; details: in vitro, NA = not active at 1 μM
T1 construct: purchased ThermoFisher

[2] = molecular target: T2, ACVR1 (Homo sapiens, UniProt Q04771); experiment: ThermoFisher (Lantha) kinase assay, inhibition of ACVR1; format: biochemical; details: ThermoFisher Assay, in vitro
T2 construct: purchased ThermoFisher
T2 sequence (Q04771 21-509): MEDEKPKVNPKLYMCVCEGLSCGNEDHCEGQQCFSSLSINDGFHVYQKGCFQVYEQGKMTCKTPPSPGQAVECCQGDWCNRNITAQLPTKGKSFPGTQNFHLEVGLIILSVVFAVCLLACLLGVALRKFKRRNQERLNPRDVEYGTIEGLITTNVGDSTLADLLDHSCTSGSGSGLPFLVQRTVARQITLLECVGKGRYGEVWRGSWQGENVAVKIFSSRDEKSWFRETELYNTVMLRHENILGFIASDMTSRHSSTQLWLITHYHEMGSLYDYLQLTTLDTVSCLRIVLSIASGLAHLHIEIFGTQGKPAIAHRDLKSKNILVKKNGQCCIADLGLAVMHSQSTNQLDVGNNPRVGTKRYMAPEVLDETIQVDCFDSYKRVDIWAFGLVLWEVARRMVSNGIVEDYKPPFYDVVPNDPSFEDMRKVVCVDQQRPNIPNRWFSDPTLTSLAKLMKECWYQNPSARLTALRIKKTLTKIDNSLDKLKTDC

[3] = Metabolic stability in human liver microsomes; format: in vitro ADME; details: some cells add hours in brackets
From the text: (§1) Exemplary compounds of the present disclosure have been evaluated for metabolic stability in mouse and human liver microsomes.

[4] = Metabolic stability in mouse liver microsomes; format: in vitro ADME; details: some cells add hours in brackets
From the text: as §1

[5] = molecular target: T3, ACVR1^WT (Homo sapiens, UniProt Q04771); experiment: Promega NanoBRET live-cell target engagement, ACVR1; format: cell-based; details: in cellulo; NI = No inhibition at 40 μM
T3 sequence (Q04771 21-509): T2 sequence (Q04771 21-509)
From the text: (§2) The Promega NanoBRET target engagement system involves cell-based competitive displacement of a fluorescent NanoBRET tracer bound reversibly to a NanoLuc fusion protein. Test compounds displace the tracer dependent on their affinity for the target and reduce […] the NanoBRET signal. […]

[6] = molecular target: T4, ACVR1^R206H (Homo sapiens, UniProt Q04771, R206H); experiment: Promega NanoBRET live-cell target engagement, ACVR1 (R206H); format: cell-based; details: in cellulo; NI = No inhibition at 40 μM
T4 sequence (Q04771 21-509 R206H): T2 sequence (Q04771 21-509) with R186H
From the text: as §2

T1 sequence (P37023 22-503): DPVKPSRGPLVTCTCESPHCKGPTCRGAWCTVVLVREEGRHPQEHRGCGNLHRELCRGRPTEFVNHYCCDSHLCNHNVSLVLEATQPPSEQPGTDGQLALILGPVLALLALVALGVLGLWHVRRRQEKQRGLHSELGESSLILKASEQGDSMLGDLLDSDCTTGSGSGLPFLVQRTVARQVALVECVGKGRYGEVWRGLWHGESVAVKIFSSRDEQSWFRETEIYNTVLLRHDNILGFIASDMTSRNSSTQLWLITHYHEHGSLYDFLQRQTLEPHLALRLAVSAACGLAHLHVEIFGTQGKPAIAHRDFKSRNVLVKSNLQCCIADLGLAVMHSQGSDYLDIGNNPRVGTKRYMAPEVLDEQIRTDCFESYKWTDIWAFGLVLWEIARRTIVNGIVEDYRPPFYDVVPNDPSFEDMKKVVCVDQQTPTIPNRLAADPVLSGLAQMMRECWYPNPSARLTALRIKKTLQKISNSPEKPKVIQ

Row | Compound | IC50 [1] [nM] | IC50 [2] [nM] | also measured
1 | 1-cyclopropyl-N-(3-(4-(2,3-dimethylphenyl)piperazin-1-yl)propyl)-2-(3,4,5-trimethoxyphenyl)-1H-benzo[d]imidazole-6-carboxamide [CDD-2468] | 4050 | 135 | 
2 | CNC(=O)[C@H]1CC[C@H](n2c(-c3cc(OC)c(OC)c(OC)c3)nc3ccc(C(=O)NC4COc5ccc(Cl)cc54)cc32)C1 (stereo partly drawn) [CDD-2233, N-(5-chloro-2,3-dihydrobenzofuran-3-yl)-1-((1S,3S)-3-(methylcarbamoyl)cyclopentyl)-2-(3,4,5-trimethoxyphenyl)-1H-benzo[d]imidazole-6-carboxamide] | 20.1 | 19.9 | 
3 | CNC(=O)[C@H]1C[C@H](n2c(-c3cc(OC)c(OC)c(OC)c3)nc3ccc(C(=O)NCCCN4CCN(c5ccccc5)CC4)cc32)C1 [CDD-2235, 1-((1r,3r)-3-(methylcarbamoyl)cyclobutyl)-N-(3-(4-phenylpiperazin-1-yl)propyl)-2-(3,4,5-trimethoxyphenyl)-1H-benzo[d]imidazole-6-carboxamide] |  |  | Metabolism HLM [3]: 9.7 min; Metabolism MLM [4]: 5.7 min
4 | CNC(=O)[C@H]1C[C@H](n2c(-c3cc(OC)c(OC)c(OC)c3)nc3ccc(C(=O)NCCCN4CCN(C)CC4)cc32)C1 [CDD-2280, 1-((1r,3r)-3-(methylcarbamoyl)cyclobutyl)-N-(3-(4-methylpiperazin-1-yl)propyl)-2-(3,4,5-trimethoxyphenyl)-1H-benzo[d]imidazole-6-carboxamide] |  |  | Metabolism HLM [3]: 70.7 min; IC50 [5]: > 40000 nM; IC50 [6]: > 40000 nM; Metabolism MLM [4]: 48 min
5 | COc1cc(-c2nc3ccc(C(=O)NCCC(=O)N4CCN(c5cccc(C)c5C)CC4)cc3n2C2CCC2)cc(OC)c1OC [CDD-2467, 1-cyclobutyl-N-(3-(4-(2,3-dimethylphenyl)piperazin-1-yl)-3-oxopropyl)-2-(3,4,5-trimethoxyphenyl)-1H-benzo[d]imidazole-6-carboxamide] |  |  | Metabolism HLM [3]: 13.6 min; Metabolism MLM [4]: 9.3 min
6 | COc1cc(OC)cc(-c2nc3ccc(C(=O)NCCCN4CCN(c5cccc(C)c5C)CC4)cc3n2C2CCC2)c1 [CDD-2469, 1-cyclobutyl-2-(3,5-dimethoxyphenyl)-N-(3-(4-(2,3-dimethylphenyl)piperazin-1-yl)propyl)-1H-benzo[d]imidazole-6-carboxamide] |  |  | IC50 [5]: 4720 nM; IC50 [6]: 4450 nM
7 | COc1ccc(-c2cccc(-c3nc4ccc(C(=O)NCCCN(C)C)cc4n3C3CCC3)n2)cc1 [CDD-2620, 1-cyclobutyl-N-(3-(dimethylamino)propyl)-2-(6-(4-methoxyphenyl)pyridin-2-yl)-1H-benzo[d]imidazole-6-carboxamide] | > 1000 |  | 
8 | CN(C)CCCNC(=O)c1ccc2nc(-c3cccc(-c4ccccc4)c3)n(C3CCC3)c2c1 [CDD-2621, 2-([1,1′-biphenyl]-3-yl)-1-cyclobutyl-N-(3-(dimethylamino)propyl)-1H-benzo[d]imidazole-6-carboxamide] | > 1000 |  | 
9 | CN(C)CCCNC(=O)c1ccc2nc(-c3cncc4ccccc34)n(C3CCC3)c2c1 [CDD-2623, 1-cyclobutyl-N-(3-(dimethylamino)propyl)-2-(isoquinolin-4-yl)-1H-benzo[d]imidazole-6-carboxamide] | > 1000 |  | 
10 | CNC(=O)[C@H]1C[C@H](n2c(-c3cc(F)cc(OC)c3)nc3ccc(C(=O)NCCCN(C)C)cc32)C1 [CDD-2682, N-(3-(dimethylamino)propyl)-2-(3-fluoro-5-methoxyphenyl)-1-((1r,3r)-3-(methylcarbamoyl)cyclobutyl)-1H-benzo[d]imidazole-6-carboxamide] | 407 | 87.1 | 
11 | CNC(=O)[C@H]1C[C@H](n2c(-c3ccc(F)c(OC)c3)nc3ccc(C(=O)NCCCN(C)C)cc32)C1 [CDD-2683, N-(3-(dimethylamino)propyl)-2-(4-fluoro-3-methoxyphenyl)-1-((1r,3r)-3-(methylcarbamoyl)cyclobutyl)-1H-benzo[d]imidazole-6-carboxamide] | 190 | 77.4 | 
12 | CNC(=O)[C@H]1C[C@H](n2c(-c3cccc(OC)c3)nc3ccc(C(=O)NCCCN(C)C)cc32)C1 [CDD-2684, N-(3-(dimethylamino)propyl)-2-(3-methoxyphenyl)-1-((1r,3r)-3-(methylcarbamoyl)cyclobutyl)-1H-benzo[d]imidazole-6-carboxamide] | 197 | 84 | 
13 | CNC(=O)[C@H]1C[C@H](n2c(-c3ccc(OC)c(OC)c3)nc3ccc(C(=O)NCCCN(C)C)cc32)C1 [CDD-2685, 2-(3,4-dimethoxyphenyl)-N-(3-(dimethylamino)propyl)-1-((1r,3r)-3-(methylcarbamoyl)cyclobutyl)-1H-benzo[d]imidazole-6-carboxamide] | 390 | 121 | 
14 | COc1cc(-c2nc3ccc(C(=O)NCCCN4CCN(C)C(c5ccccc5)C4)cc3n2C2CCC2)cc(OC)c1OC (centres unmarked) [CDD-2793, 1-cyclobutyl-N-(3-(4-methyl-3-phenylpiperazin-1-yl)propyl)-2-(3,4,5-trimethoxyphenyl)-1H-benzo[d]imidazole-6-carboxamide] |  |  | IC50 [5]: 2720 nM; IC50 [6]: 4280 nM
15 | COc1cc(-c2nc3ccc(C(=O)NCCN4CCN(C5CCCCC5)CC4)cc3n2C2CCC2)cc(OC)c1OC [CDD-2794, 1-cyclobutyl-N-(2-(4-cyclohexylpiperazin-1-yl)ethyl)-2-(3,4,5-trimethoxyphenyl)-1H-benzo[d]imidazole-6-carboxamide] |  |  | IC50 [5]: 2090 nM; IC50 [6]: 3160 nM
16 | COc1cc(-c2nc3ccc(C(=O)NCC4(O)CCN(Cc5ccccc5)CC4)cc3n2C2CCC2)cc(OC)c1OC [CDD-2795, N-((1-benzyl-4-hydroxypiperidin-4-yl)methyl)-1-cyclobutyl-2-(3,4,5-trimethoxyphenyl)-1H-benzo[d]imidazole-6-carboxamide] |  |  | IC50 [5]: 387 nM; IC50 [6]: 459 nM

Second part, led by results:

Row | IC50 [1] [nM] | IC50 [2] [nM] | Compound | also measured
17 | 14.8 | 3.7 | CNC(=O)[C@H]1CC[C@H](n2c(-c3cc(I)c(OC)c(OC)c3)nc3ccc(C(=O)NCCCN4CCN(c5ccccc5)CC4)cc32)C1 [CDD-2205, 2-(3-iodo-4,5-dimethoxyphenyl)-1-((1S,3S)-3-(methylcarbamoyl)cyclopentyl)-N-(3-(4-phenylpiperazin-1-yl)propyl)-1H-benzo[d]imidazole-6-carboxamide] | 
18 | 26.9 | 5.3 | CNC(=O)[C@H]1CC[C@H](n2c(-c3cc(OC)c(OC)c(OC)c3)nc3ccc(C(=O)NCCCN4CCN(c5ccccc5)CC4)cc32)C1 [CDD-2206, 1-((1S,3S)-3-(methylcarbamoyl)cyclopentyl)-N-(3-(4-phenylpiperazin-1-yl)propyl)-2-(3,4,5-trimethoxyphenyl)-1H-benzo[d]imidazole-6-carboxamide] | 
19 | 534 | 65.6 | COc1cc(-c2nc3ccc(C(=O)NCCCN4CCN(c5ccccc5)CC4)cc3[nH]2)cc(OC)c1OC [CDD-2236, N-(3-(4-phenylpiperazin-1-yl)propyl)-2-(3,4,5-trimethoxyphenyl)-1H-benzo[d]imidazole-6-carboxamide] | 
20 | 12.3 | 3.6 | CNC(=O)[C@H]1C[C@H](n2c(-c3cc(OC)c(OC)c(OC)c3)nc3ccc(C(=O)NCCCN4CCN(c5cccc(C)c5C)CC4)cc32)C1 [CDD-2341, N-(3-(4-(2,3-dimethylphenyl)piperazin-1-yl)propyl)-1-((1r,3r)-3-(methylcarbamoyl)cyclobutyl)-2-(3,4,5-trimethoxyphenyl)-1H-benzo[d]imidazole-6-carboxamide] | 
21 | 11.5 | 5.7 | CNC(=O)[C@@H]1CC[C@@H](n2c(-c3cc(OC)c(OC)c(OC)c3)nc3ccc(C(=O)NCCCN4CCN(c5ccccc5)CC4)cc32)C1 [CDD-2622, 1-((1R,3R)-3-(methylcarbamoyl)cyclopentyl)-N-(3-(4-phenylpiperazin-1-yl)propyl)-2-(3,4,5-trimethoxyphenyl)-1H-benzo[d]imidazole-6-carboxamide] | 

— patent US20260217660A1, “INHIBITORS OF ACTIVIN RECEPTOR TYPE I (ACVRI) AND ACTIVIN RECEPTOR LIKE TYPE I (ACVRLI), AND METHODS USING SAME” (Baylor College of Medicine, priority 2023, published 2026)
